Test results taken from patent US8586369B2, “Ion channel-forming peptides” (The Regents of the University of California, priority 2007, dated 2013).

How the values were obtained:
Assay type in all cases: biochemical
[1] = Single-channel conductance in bilayers with positively-charged headgroups (10% DODAP, 90% DiPhyPC); conditions: 20 mM KCl
Description: The conductance of gA-gA and 2-2 in lipid bilayers that contained 10% of a lipid with positively-charged headgroups (here, 1,2-dioleoyl-3-(dimethylamino)propane, DODAP, and 90% DiPhyPC) was measured.
Formation of planar lipid bilayers: We formed most planar lipid bilayers with the “folding technique.” We used a Teflon film (Eastern Scientific Inc, pore diameter 0.18-0.25 mm) was pretreated on each side with 2.5 μL of 5% hexadecane in pentane and air dried. This film was mounted using vacuum grease (Dow Corning, High vacuum grease) to a custom made Teflon chamber separating two buffer compartments each with a volume capacity of 4 mL. […]
Ion channel measurements: We performed single channel recordings in “voltage clamp mode” using Ag/AgCl electrodes (Warner Instruments) in each compartment of the bilayer chambers. […] The current traces we used to generate all data that was recorded at applied potentials s 50 mV were filtered at 10 Hz. […]

[2] = Single-channel conductance of homodimeric gA pores in planar lipid bilayers made from DiPhyPC (Example 1); conditions: 20 mM KCl plus 10 mM KOH
[3] = Single-channel conductance in negatively charged planar bilayers (50% POPE, 50% DOPS); conditions: 0.01 M KCl, 0.1 mM HEPES pH 7.4
Text: The data acquisition boards for both amplifiers were set to a sampling frequency of 15 kHz.

[4] = Single-channel conductance of homodimeric gA pores in planar lipid bilayers made from DiPhyPC (Example 1); conditions: for Single-channel conductance γ: HEPES pH 7.4, DiPhyPC bilayers, slope of I-V curves; for γ-ratio to gA-gA: pH 7.4, DiPhyPC
Description: Formation of planar lipid bilayers: We formed most planar lipid bilayers with the “folding technique.” We used a Teflon film (Eastern Scientific Inc, pore diameter 0.18-0.25 mm) was pretreated on each side with 2.5 μL of 5% hexadecane in pentane and air dried. This film was mounted using vacuum grease (Dow Corning, High vacuum grease) to a custom made Teflon chamber separating two buffer compartments each with a volume capacity of 4 mL. After adding 1 mL of electrolyte (0.01 M to 1.00 M KCl buffered with HEPES pH 7.4) to each compartment, lipids were spread from a solution in pentane onto the surface of the electrolyte solutions (specifically, 4-6 μL from 25 mg mL-l solution DiPhyPC or from 6.25 mg mL-l each of 50% DOPS and 50% POPE or from 25 mg mL-l DODAP mixed with 25 mg mL-l DiPhyPC in a 1:9 ratio. Three additional milliliters of electrolyte solution were added to each side of the chamber to raise the liquid levels above the aperture. We formed the bilayers from apposition of two monolayers of lipids using the method described by Montal et al. (Proc. Natl. Acad. Sci. U.S.A. 1972, 69, 3561-3566). Briefly, bilayers were obtained by consecutively raising the liquid level in each compartment until the pore was completely covered by electrolyte. If at this point the pore was not closed by a lipid bilayer, then the liquid level in one or both compartments was lowered below the pore level by aspirating electrolyte into a 3 mL syringe, followed by raising the electrolyte solution again.
Planar lipid bilayers were also made with the “painting technique”. We pretreated each side of a pore in a bilayer cup (Warner Instruments, Delrin perfusion cup, volume 1 mL, pore diameter 250 μm) with ˜2 μL of a 25 mg mL-l solution of DiPhyPC in hexane. After adding recording buffer (0.01 M KCl to 1.00 M KCl buffered with HEPES, pH=7.4) to both compartments of the bilayer setup, we “painted” a solution of 20 mg mL-l DiPhyPC in n-decane over the pore by using a paint brush with a fine tip. We followed the thinning of the decane droplet to form a planar bilayer by monitoring the capacitance of the bilayer. After verifying that bilayers were stable for several minutes (in the range of ±200 mV applied voltage) and that the capacitances were above 80-90 pF, gA was added (4-8 μL from 1 ng mL-l in ethanol), derivatives 1 or 2 (2-10 μL from 100 ng mL-l in ethanol), or derivative 3 (4-10 μL from 100 ng mL-l in ethanol) directly to the bilayer chambers.
Ion channel measurements: We performed single channel recordings in “voltage clamp mode” using Ag/AgCl electrodes (Warner Instruments) in each compartment of the bilayer chambers. Data acquisition and storage was carried out using custom software in combination with either an EPC-7 patch clamp amplifier from List Medical Electronic (set at a gain of 100 mV pA-1 and a filter cutoff frequency of 3 kHz) or a Geneclamp 500 amplifier from Axon Instruments (with a CV-5B 100GU headstage, set at a gain of 100 mV pA-1 and filter cutoff frequency of 1 kHz). We used the EPC-7 amplifier for most folded bilayers and the Geneclamp 500 amplifier for most painted bilayers. The data acquisition boards for both amplifiers were set to a sampling frequency of 15 kHz. All current traces shown in the figures were further filtered using a digital Gaussian low-pass filter with a cutoff frequency of 30 Hz. The current traces we used to generate all data that was recorded at applied potentials s 50 mV were filtered at 10 Hz.
We performed the analysis of the single channel current traces by computing histograms of the currents from the original current-time traces with ClampFit 9.2 software from Axon Instruments. From these histograms we extracted the main current values by fitting a Gaussian function to the peaks in the histograms. […] Single channel conductances reported in this paper always refer to the main conductance state (i.e. to the dominant peaks in the current histograms).

Substance: taurinyl gramicidate [compound 2]
- increase of the relative ratio of conductance of 2-2 to gA-gA versus purely zwitterionic lipids [1]: 10%
- conductance compared with gA-gA at pH 12 ([2]; DiPhyPC): significantly larger
- γ at pH 12 ([2]; DiPhyPC bilayers, homodimers): 9.8 ± 0.2 pS
- Single-channel conductance γ in negatively charged bilayers [3]: 24.4±0.5 pS
- Single-channel conductance γ ([4]; 0.01 M KCl, homodimers): 4.3 ± 0.3 pS
- ratio between the conductance of 2-2 and gA-gA ([4]; 0.02 M KCl, 100 mV applied potential): 1.4
- ratio between the conductance of 2-2 and gA-gA ([4]; 0.02 M KCl, 200 mV applied potential): 1.5
- conductance compared with gA-gA at pH 7.4 ([4]; 20 mM KCl, DiPhyPC): significantly larger
- γ at pH 7.4 ([4]; 20 mM KCl, DiPhyPC bilayers, homodimers): 5.8 ± 0.1 pS
- overall conductance of heterodimeric pore of gA and 2, with 2 at the entrance of the pore ([4]; 0.02 M KCl, DiPhyPC, transmembrane potentials above 100 mV): approximately the same as that of homodimeric pores from 2
- Single-channel conductance γ ([4]; 0.10 M KCl, homodimers): 12.6 ± 0.4 pS
- γ-ratio to gA-gA ([4]; 0.10 M KCl): 1.2
- Single-channel conductance γ ([4]; 1.00 M KCl, homodimers): 21.5 ± 0.3 pS
- γ-ratio to gA-gA ([4]; 1.00 M KCl): 1.1
- current as share of the estimated maximum, mass transport limited current (3 pA) ([4]; 200 mV applied potential, 0.02 M KCl): ~30%
- difference in single channel conductance compared to gA ([4]; approximately 1.00 M KCl): < 10%
